In series [1] the test system is Pyricularia oryzae. Briefly: whole plant or invertebrate. The class given is in vivo. The note with it: topical, 24 h, read-out: PYRIOR control of disease.
Series [2] deals with Cochliobolus sativus. The series can be described thus: Spot Blotch of Wheat 1-day protectant test (COCHSA). Type of series: in vivo. The settings on record: Bipolaris sorokiniana, 24 h; one-day protectant test, 200 ppm application rate, wheat plants (variety Yuma); read-out: COCHSA control of disease. The procedure: The technical compounds were formulated at 200 ppm in 10 vol. acetone plus 90 vol. Triton X water (deionized water 99.99 wt. % +0.01 wt. Triton X100), giving a “formulated test compound.” The compounds were tested for ability to control plant diseases at the whole plant level in a 1-day protectant test (IDP). Formulated test compounds were applied to plants using a turn table sprayer fitted with two opposing air atomization nozzles which delivered approximately 1500 L/ha of spray volume. Plants were inoculated with spores of the fungus the next day, then incubated in an environment conducive to disease development. Disease severity was evaluated 4 to 19 days later, depending on the speed of disease development. […] Each pot contained 3-8 seedlings. These plants were sprayed until wet with the formulated test compound at a rate of 200 ppm. On the following day, the leaves were inoculated with an aqueous spore suspension of Cochliobolus sativus and the plants were kept in high humidity for one to two days to permit spores to germinate and infect the leaf. The plants were then transferred to a greenhouse until disease developed on untreated control plants. The following table presents the activity of typical compounds of the present invention when evaluated in these experiments. The effectiveness of the test compounds in controlling disease was determined by assessing the severity of disease on treated plants, then converting the severity to percent control based on the level of disease on untreated, inoculated plants.

Series [3] deals with Septoria tritici. The series can be described thus: Speckled Leaf Blotch of Wheat 1-day protectant test (SEPTTR). The settings on record: Zymoseptoria tritici, topical, 24 h; one-day protectant test, 200 ppm application rate, wheat plants (variety Monon); read-out: SEPTTR control of disease. Type of series: in vivo. The method, then:
The technical compounds were formulated at 200 ppm in 10 vol. acetone plus 90 vol. Triton X water (deionized water 99.99 wt. % +0.01 wt. Triton X100), giving a “formulated test compound.” The compounds were tested for ability to control plant diseases at the whole plant level in a 1-day protectant test (IDP). Formulated test compounds were applied to plants using a turn table sprayer fitted with two opposing air atomization nozzles which delivered approximately 1500 L/ha of spray volume. Plants were inoculated with spores of the fungus the next day, then incubated in an environment conducive to disease development. Disease severity was evaluated 4 to 19 days later, depending on the speed of disease development. Speckled Leaf Blotch of Wheat (Mycosphaerella graminicola=Septoria tritici; Bayer code […]): Wheat plants (variety Monon) were grown from seed in a greenhouse in 50% pasteurized soil/50% soil-less mix until the first true leaf was fully expanded, with 3-8 seedlings per pot. These plants were sprayed until wet with the formulated test compound at a rate of 200 ppm. On the following day, the leaves were inoculated with an aqueous spore suspension of Septoria tritici and the plants were kept in high humidity (one day in a dark dew chamber followed by four to seven days in a lighted dew chamber) to permit spores to germinate and infect the leaf. The plants were then transferred to a greenhouse until disease developed on untreated control plants. The following table presents the activity of typical compounds of the present invention when evaluated in these experiments. The effectiveness of the test compounds in controlling disease was determined by assessing the severity of disease on treated plants, then converting the severity to percent control based on the level of disease on untreated, inoculated plants.

Series [4] has as its system Colletotricum lagenarium. Briefly: Cucumber Anthracnose 1-day protectant test (COLLLA). The class given is in vivo. The note with it: Cucumis sativus, topical, 24 h; one-day protectant test, 200 ppm application rate, cucumber plants (variety Bush Champion); read-out: COLLLA control of disease. The procedure: The technical compounds were formulated at 200 ppm in 10 vol. acetone plus 90 vol. Triton X water (deionized water 99.99 wt. % +0.01 wt. Triton X100), giving a “formulated test compound.” The compounds were tested for ability to control plant diseases at the whole plant level in a 1-day protectant test (IDP). Formulated test compounds were applied to plants using a turn table sprayer fitted with two opposing air atomization nozzles which delivered approximately 1500 L/ha of spray volume. Plants were inoculated with spores of the fungus the next day, then incubated in an environment conducive to disease development. Disease severity was evaluated 4 to 19 days later, depending on the speed of disease development. Cucumber Anthracnose (causal agent Colletotricum lagenarium; Bayer code COLLLA): Cucumber plants (variety Bush Champion) were grown from seed in a soilless peat-based potting mixture (Metromix) until the first true leaf was 20-80% expanded. Each pot contained 1 seedling. These plants were sprayed until wet with the formulated test compound at a rate of 200 ppm. On the following day, the leaves were inoculated with an aqueous spore suspension of Colletotricum lagenarium and the plants were kept in high humidity for one day to permit spores to germinate and infect the leaf. The plants were then transferred to a growth chamber until disease developed on untreated control plants. The following table presents the activity of typical compounds of the present invention when evaluated in these experiments. The effectiveness of the test compounds in controlling disease was determined by assessing the severity of disease on treated plants, then converting the severity to percent control based on the level of disease on untreated, inoculated plants.

The test system of series [5] is Leptosphaeria nodorum. Briefly: Glume Blotch of Wheat 1-day protectant test (LEPTNO). The class given is in vivo. The settings on record: Parastagonospora nodorum, topical, 24 h; one-day protectant test, 200 ppm application rate, wheat plants (variety Yuma); read-out: LEPTINO control of disease. The method, then: The technical compounds were formulated at 200 ppm in 10 vol. acetone plus 90 vol. Triton X water (deionized water 99.99 wt. % +0.01 wt. Triton X100), giving a “formulated test compound.” The compounds were tested for ability to control plant diseases at the whole plant level in a 1-day protectant test (IDP). Formulated test compounds were applied to plants using a turn table sprayer fitted with two opposing air atomization nozzles which delivered approximately 1500 L/ha of spray volume. Plants were inoculated with spores of the fungus the next day, then incubated in an environment conducive to disease development. Disease severity was evaluated 4 to 19 days later, depending on the speed of disease development. Glume Blotch of Wheat (causal agent Leptosphaeria nodorum=Stagnospora nodorum; Bayer code […]): Wheat plants (variety Yuma) were grown from seed in a 50% pasteurized soil/50% soil-less mix until the seedlings had fully expanded first leaf. Each pot contains 3-20 seedlings. These plants were sprayed until wet with the formulated test compound at a rate of 200 ppm. On the following day, the leaves were inoculated with an aqueous spore suspension of Leptosphaeria nodorum and the plants were kept in high humidity (one day in a dark dew chamber followed by four to seven days in a lighted dew chamber) to permit spores to germinate and infect the leaf. The plants were then transferred to a greenhouse until disease developed on untreated control plants. The following table presents the activity of typical compounds of the present invention when evaluated in these experiments. The effectiveness of the test compounds in controlling disease was determined by assessing the severity of disease on treated plants, then converting the severity to percent control based on the level of disease on untreated, inoculated plants.

For series [6], the system named is Puccinia triticina. Briefly: Leaf Rust of Wheat 1-day protectant test (PUCCRT). Type of series: in vivo. The note with it: topical, 24 h, one-day protectant test, 200 ppm application rate, wheat plants (variety Yuma), read-out: PUCCRT control of disease. The procedure:
The technical compounds were formulated at 200 ppm in 10 vol. acetone plus 90 vol. Triton X water (deionized water 99.99 wt. % +0.01 wt. Triton X100), giving a “formulated test compound.” The compounds were tested for ability to control plant diseases at the whole plant level in a 1-day protectant test (IDP). Formulated test compounds were applied to plants using a turn table sprayer fitted with two opposing air atomization nozzles which delivered approximately 1500 L/ha of spray volume. Plants were inoculated with spores of the fungus the next day, then incubated in an environment conducive to disease development. Disease severity was evaluated 4 to 19 days later, depending on the speed of disease development. […] Each pot contained 3-8 seedlings. These plants were sprayed until wet with the formulated test compounds at a rate of 200 ppm. On the following day, the leaves were inoculated with an aqueous spore suspension of Puccinia triticina and the plants were kept in high humidity overnight to permit spores to germinate and infect the leaf. The plants were then transferred to a greenhouse until disease developed on untreated control plants. The following table presents the activity of typical compounds of the present invention when evaluated in these experiments. The effectiveness of the test compounds in controlling disease was determined by assessing the severity of disease on treated plants, then converting the severity to percent control based on the level of disease on untreated, inoculated plants.

On to `Clc1cccc(Nc2ncnc(-c3ccnc(N4CCCCC4)c3)n2)c1` [Compound 7, N-(3-chlorophenyl)-4-(2-piperidin-1-ylpyridin-4-yl)-1,3,5-triazin-2-amine], for which the melting point (commonly the temperature, or range, at which the solid turns liquid) was 168 to 169 °C. In addition, in series [1], the pest or weed control at 200 ppm is less than 20%. Also, the pest or weed control at 200 ppm in series [2] fell in the range of 21 to 49%. Moreover, the pest or weed control at 200 ppm in series [3] lay in the range of 50 to 89%. Moreover, the pest or weed control at 200 ppm in series [4] was less than 20%. The pest or weed control at 200 ppm in series [5] was in the range of 50 to 89%. For the same compound, the pest or weed control at 200 ppm in series [6] fell in the range of 21 to 49%.

Source of the values: patent US20050130968A1, “Fungicidal 4-(2-aminopyridin-4-yl)-N-phenyl-1,3,5-triazin-2-amine derivatives” (priority 2003, published 2005).
